Like-named read-outs stand apart in the source and are kept apart here.
Key:
SMOV2 (A) = assay: SRB proliferation assay, SMOV2 (PPM1D amplified); assay type: cell-based; conditions: Homo sapiens, SMOV2, PP1MD amplified cell line (A)
Description: (§1) All cell lines were obtained from ATCC except KPL1 which was obtained from Leibniz Institute DSMZ-German Collection of Microorganisms and Cell Cultures, and SMOV2 which was obtained from Dr. Hiroaki Itamochi (Tottori University School of Medicine, Yonago, Japan; see also: ‘Establishment and characterization of human ovarian clear cell adenocarcinoma cell line (SMOV-2), and its cytotoxity by anticancer agents’, Yonamine K at al., Hum Cell., 1999, 12(3), 139-48; and ‘PPM1D Is a Potential Therapeutic Target in Ovarian Clear Cell Carcinoma’, David S. P. Tan et al., Clin Cancer Res, 2009, 15, 2269).
(§2) Representative compounds were assessed in a sulforhodamine B (SRB) proliferation assay in the cell lines shown in the Tables below, according to the following general procedure:
(§3) Cells were seeded in a 96 well plate at a number optimized for each cell line as known in the art; for example as described in Viachai et al, Nature Protocols, 2006, 1 1112-1116. Two fold dilutions of the compounds to be tested were made in culture medium so that, when diluted 5×, the final concentration in the wells was from 50 μM to 0.000191 μM (19 concentrations). A day after seeding the cells in 96 well plates, 25 μl of the compound diluted in the culture medium was added to 100 μl of the cells and incubated at 37° C. and 5% CO2 for 3 or 5 more days as required. After this time, cells were fixed by adding 10% ice cold TCA (in H2O) to 3% final concentration in the wells and by incubating at 4° C. for at least 2 h. Plates were washed 4 times in H2O and allowed to dry in the air. Added 100 μl of 0.057% SRB solution to the dried plates and incubated at room temperature for at least 30 min. Removed SRB solution from the plates and washed four times with 1% acetic acid. Plates were left overnight to dry in the air followed by addition of 100 μl of 10 mM Tris pH 10.5 to each well of the dried plates and incubation on a shaker for 5 min to solubilize the SRB. Optical density was measured at wave length of 490 nm using a plate reader and analysis performed to measure the GI50 using GraphPad PRISM.

TOV21G (NA) = assay: SRB proliferation assay, TOV21G (non-amplified control); assay type: cell-based; conditions: Homo sapiens, 120 h, 5-day incubation, control not amplified (NA)
Description: as §1, §2, §3

MCF7 (A) = assay: SRB proliferation assay, MCF7 (amplified); assay type: cell-based; conditions: MCF7a, 120 h, 5-day incubation
Description: as §1, §2
(§4) Cells were seeded in a 96 well plate at a number optimized for each cell line as known in the art; for example as described in Viachai et al, Nature Protocols, 2006, 1 1112-1116. Two fold dilutions of the compounds to be tested were made in culture medium so that, when diluted 5×, the final concentration in the wells was from 50 μM to 0.000191 μM (19 concentrations). […] Optical density was measured at wave length of 490 nm using a plate reader and analysis performed to measure the GI50 using GraphPad PRISM.

KPL1 (A) = assay: SRB proliferation assay, KPL1 (amplified); assay type: cell-based; conditions: KPL-1, 120 h, 5-day incubation
Description: as §1, §2, §4

MDAMB231 (NA) = assay: SRB proliferation assay, MDAMB231 (non-amplified); assay type: cell-based; conditions: Homo sapiens, MDA-MB-231, 120 h; 5-day incubation; MDAMB231, not amplified (NA)
Description: as §1, §2, §4

HeLa (NA) = assay: SRB proliferation assay, HeLa (non-amplified); assay type: cell-based; conditions: Homo sapiens, 120 h, 5-day incubation, not amplified (NA)
Description: as §1, §2, §4

Cama1 (NA) = assay: SRB proliferation assay, Cama1 (non-amplified); assay type: cell-based; conditions: Homo sapiens, CAMA-1, 120 h; 5-day incubation; Cama1, not amplified (NA)
Description: as §1, §2, §4

[1] = system: Phospho-p38, Phospho-p53 S15, cleaved PARP in SMOV2 cells; assay: Western blot analysis of biomarker modulation in SMOV2 cells; assay type: cell-based, human; conditions: 24 hours treatment, FIG. 1
Protocol: FIG. 1 provides an image showing the results of a Western Blot (LDS-PAGE gel) for cleaved PARP, Phospho-p53 S15, Phospho-p38, and GAPDG, confirming modulation of the biomarkers expected for PP1 MD-mediated inhibition in SMOV2 cells as described in Example 2.
Biomarker modulation by representative compounds was assessed by Western blot analysis in SMOV2 cells using the following procedure:
On day one, 3×10^5 cells were plated per well in a 6 well plate. Next day cells were treated with DMSO control or indicated concentrations of the representative compounds for 24 hours. Treated cells were lysed in complete lysis buffer (50 mM NaCl, 20 mM Tris pH7.5, 1 mM EDTA, 1 mM EGTA, 1% Triton X100, 10 mM NaF, protease Inhibitor tablet and phosphatase inhibitor cocktails) on ice for 10 min. Soluble proteins were separated by centrifugation, and protein concentration was measured using Bradford assay. Samples with equal amount of proteins were prepared and run on LDS-PAGE. Separated proteins were transferred to the nitrocellulose membrane and probed with the Phospho-p38, Phospho-p53 S15, cleaved PARP, γ-H2AX and GAPDH antibodies.

COCCOCc1cc(F)ccc1-c1nc(-c2ccc3[nH]c(=O)[nH]c3c2)cs1 [Compound 32, 5-(2-(4-fluoro-2-((2-methoxyethoxy)methyl)phenyl)thiazol-4-yl)-1H-benzo[d]imidazol-2(3H)-one]
GI50 (SMOV2 (A); 72 h, 3-day incubation, read-out: GI50 3-day SMOV2 (A) SRB): 4.8 nM | GI50 (SMOV2 (A); 120 h, 5-day incubation, read-out: GI50 5-day SMOV2 (A) SRB): 1.6 nM | GI50 (TOV21G (NA)): > 10000 nM | GI50 (MCF7 (A)): 4.6 nM | GI50 (KPL1 (A)): 36 nM | GI50 (MDAMB231 (NA)): > 10000 nM | GI50 (HeLa (NA)): 5600 nM | GI50 (Cama1 (NA)): 3900 nM | biomarker modulation (Western blot: cleaved PARP, Phospho-p53 S15, Phospho-p38) [1]: modulation of the biomarkers expected for PP1MD-mediated inhibition
